Patent US8450331B2, “Thiophenyl-substituted 2-imino-3-methyl pyrrolo pyrimidinone compounds as BACE-1 inhibitors, compositions, and their use” (Merck Sharp & Dohme Corp., priority 2008, dated 2013)
Where two headings read alike, the source gives them in different places.

Assays:
[1] = molecular target: T1, soluble human BACE1 catalytic domain (Homo sapiens, UniProt P56817); assay: BACE1 HTRF FRET assay; format: biochemical; conditions: calculated from IC50 by Cheng-Prusoff; QSY7-APPswe-Eu substrate, pH 5.0
T1 construct: purified human BACE1 catalytic domain
T1 sequence (P56817 75-416 limits assumed): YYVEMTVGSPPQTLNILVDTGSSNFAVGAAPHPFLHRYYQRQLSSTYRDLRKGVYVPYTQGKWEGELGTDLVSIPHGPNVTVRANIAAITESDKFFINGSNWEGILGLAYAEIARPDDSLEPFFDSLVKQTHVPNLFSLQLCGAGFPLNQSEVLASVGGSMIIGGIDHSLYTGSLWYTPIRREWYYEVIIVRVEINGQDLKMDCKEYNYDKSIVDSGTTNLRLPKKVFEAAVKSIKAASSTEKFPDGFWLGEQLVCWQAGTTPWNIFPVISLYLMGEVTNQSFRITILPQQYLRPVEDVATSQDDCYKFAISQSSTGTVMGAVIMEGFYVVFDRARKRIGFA

CYP2D6 = molecular target: T2, CYP2D6 (Homo sapiens, UniProt P10635); assay: CYP inhibition assay, human liver microsomes, CYP2D6; format: in vitro ADME
T2 construct: human liver microsomes (0.4 mg/ml); from tissue; host or cells: human liver microsomes
T2 sequence (P10635 whole entry): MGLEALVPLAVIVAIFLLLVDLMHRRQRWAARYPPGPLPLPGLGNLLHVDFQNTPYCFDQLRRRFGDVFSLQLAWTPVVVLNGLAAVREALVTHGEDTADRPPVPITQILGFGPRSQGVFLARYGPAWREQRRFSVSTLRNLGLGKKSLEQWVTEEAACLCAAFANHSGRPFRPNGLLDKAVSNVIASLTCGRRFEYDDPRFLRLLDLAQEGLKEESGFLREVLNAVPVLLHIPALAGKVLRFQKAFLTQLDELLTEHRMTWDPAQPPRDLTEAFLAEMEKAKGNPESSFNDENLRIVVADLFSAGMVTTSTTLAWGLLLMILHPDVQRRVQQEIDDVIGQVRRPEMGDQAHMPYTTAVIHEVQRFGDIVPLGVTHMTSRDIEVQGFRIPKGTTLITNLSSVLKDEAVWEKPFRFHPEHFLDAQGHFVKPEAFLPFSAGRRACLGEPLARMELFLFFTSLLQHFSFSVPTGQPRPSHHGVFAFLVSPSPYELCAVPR
Procedure: (§1) The test article was dissolved in methanol at a concentration of 5 mM. Dilutions of the stock solution were also prepared in methanol. The substrate concentration was kept near the Km value for each CYP reaction. The substrates were 100 μM phenacetin (O-deethylase reaction) for CYP1A2, 16 μM dextromethorphan (O-demethylase reaction) for CYP2D6, 100 μM testosterone (6β-hydroxylase reaction) and 5 μM midazolam (1′-hydroxylase reaction) for CYP3A4, 200 μM tolbutamide (4-hydroxylase reaction) for CYP2C9, 125 μM S-(+)-mephenyloin (4-hydroxylase reaction) for CYP2C19 and 5 μM paclitaxel (6[…]-hydroxylase reaction) for CYP2C8. The reactions were terminated by the addition of 35% perchloric acid to a final concentration of 4.5% (vol:vol). The concentrations of the metabolites formed from each substrate after incubation were determined by LC-MS/MS using a standard curve.
(§2) To evaluate metabolism/mechanism-based inhibition, the test article, at the stated concentrations (0 to 50 μM), was pre-incubated with human liver microsomes for 30 min at 37° C. in the presence of NADPH and in the absence of the substrates. After the pre-incubation step, the CYP substrates were added at the previously stated concentrations and the reactions were allowed to proceed as indicated in the previous paragraph.

CYP3A4 = molecular target: T3, CYP3A4 (Homo sapiens, UniProt P08684); assay: CYP inhibition assay, human liver microsomes, CYP3A4; format: in vitro ADME
T3 construct: human liver microsomes (0.4 mg/ml); from tissue; host or cells: human liver microsomes
T3 sequence (P08684 whole entry): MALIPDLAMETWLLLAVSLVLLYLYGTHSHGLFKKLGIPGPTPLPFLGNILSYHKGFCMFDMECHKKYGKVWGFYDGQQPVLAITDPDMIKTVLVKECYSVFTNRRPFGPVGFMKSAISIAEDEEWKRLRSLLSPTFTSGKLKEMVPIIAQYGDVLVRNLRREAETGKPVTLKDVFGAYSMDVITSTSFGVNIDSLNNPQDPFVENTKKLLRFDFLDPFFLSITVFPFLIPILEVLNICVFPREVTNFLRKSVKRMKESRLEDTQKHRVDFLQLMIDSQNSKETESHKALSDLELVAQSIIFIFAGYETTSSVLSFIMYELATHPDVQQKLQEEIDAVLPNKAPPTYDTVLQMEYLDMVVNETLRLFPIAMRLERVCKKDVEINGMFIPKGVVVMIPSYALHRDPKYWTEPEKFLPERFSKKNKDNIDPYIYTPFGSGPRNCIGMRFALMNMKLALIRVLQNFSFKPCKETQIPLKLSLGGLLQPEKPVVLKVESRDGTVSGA

CYP2C9 = molecular target: T4, CYP2C9 (Homo sapiens, UniProt P11712); assay: CYP inhibition assay, human liver microsomes, CYP2C9; format: in vitro ADME
T4 construct: human liver microsomes (0.4 mg/ml); from tissue; host or cells: human liver microsomes
T4 sequence (P11712 whole entry): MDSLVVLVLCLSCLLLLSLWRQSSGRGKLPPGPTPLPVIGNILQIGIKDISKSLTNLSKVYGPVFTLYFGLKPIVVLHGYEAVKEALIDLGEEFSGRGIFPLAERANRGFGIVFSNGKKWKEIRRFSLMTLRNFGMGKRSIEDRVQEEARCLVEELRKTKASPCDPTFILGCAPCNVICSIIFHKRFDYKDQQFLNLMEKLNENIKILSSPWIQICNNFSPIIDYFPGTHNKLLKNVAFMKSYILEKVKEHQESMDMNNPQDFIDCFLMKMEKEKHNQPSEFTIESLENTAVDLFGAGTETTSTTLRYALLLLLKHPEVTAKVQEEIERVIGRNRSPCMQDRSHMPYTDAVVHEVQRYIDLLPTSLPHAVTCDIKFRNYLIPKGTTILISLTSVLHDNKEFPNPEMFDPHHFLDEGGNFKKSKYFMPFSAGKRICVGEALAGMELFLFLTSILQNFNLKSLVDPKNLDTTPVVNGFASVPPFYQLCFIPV
Procedure: as §1, §2

BACE1 = molecular target: T5, BACE1 (Homo sapiens, UniProt P56817); assay: BACE inhibitor whole cell IC50 determination using HEK293-APPswe/lon cells (Aβ40); format: cell-based; conditions: 4 hours, Aβ40 in media, read-out: BACE1 A[…]40 IC50
T5 construct: endogenous in cells; host or cells: HEK293 stably transfected with human APP cDNA (Swedish and London mutations)
T5 sequence (P56817 46-501): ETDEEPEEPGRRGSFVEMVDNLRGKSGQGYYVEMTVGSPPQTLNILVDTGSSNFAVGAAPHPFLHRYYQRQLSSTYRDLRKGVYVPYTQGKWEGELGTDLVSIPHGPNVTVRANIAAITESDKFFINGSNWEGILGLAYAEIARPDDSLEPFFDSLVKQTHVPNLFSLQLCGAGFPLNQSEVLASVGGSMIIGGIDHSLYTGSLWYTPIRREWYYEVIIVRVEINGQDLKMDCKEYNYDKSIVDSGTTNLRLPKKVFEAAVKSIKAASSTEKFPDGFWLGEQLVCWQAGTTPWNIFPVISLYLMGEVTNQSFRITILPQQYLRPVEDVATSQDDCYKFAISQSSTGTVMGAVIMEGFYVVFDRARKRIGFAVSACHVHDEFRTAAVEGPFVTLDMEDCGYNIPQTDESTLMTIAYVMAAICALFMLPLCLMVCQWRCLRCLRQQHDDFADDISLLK

human liver Cathepsin D = molecular target: T6, human liver Cathepsin D (Homo sapiens, UniProt P07339); assay: Human Cathepsin D FRET assay; format: biochemical; conditions: selectivity with respect to Cathepsin D versus BACE1
T6 construct: Purified (>95%) human liver Cathepsin D; purchased Athens Research & Technology 16-12-030104; host or cells: human liver (tissue-derived)
T6 sequence (P07339 169-412 limits assumed): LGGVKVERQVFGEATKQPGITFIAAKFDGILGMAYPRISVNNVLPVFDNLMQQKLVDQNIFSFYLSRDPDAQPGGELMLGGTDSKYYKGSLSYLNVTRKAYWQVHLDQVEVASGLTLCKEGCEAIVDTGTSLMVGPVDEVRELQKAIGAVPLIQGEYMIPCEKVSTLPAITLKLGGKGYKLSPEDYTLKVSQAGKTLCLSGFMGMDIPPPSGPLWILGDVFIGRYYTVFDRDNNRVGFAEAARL
T6 sequence (P07339 65-161 limits assumed): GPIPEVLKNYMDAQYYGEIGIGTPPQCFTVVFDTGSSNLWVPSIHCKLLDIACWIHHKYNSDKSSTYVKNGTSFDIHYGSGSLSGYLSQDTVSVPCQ

hERG = molecular target: T7, hERG (Homo sapiens, UniProt Q12809); assay: hERG rubidium efflux in hERG-CHO cells; format: cell-based; conditions: CHO cells that express hERG (hERG-CHO); for inhibition at 30 min, 1.5 uG/mL: pH 7.4, 1.5 uG/mL, read-out: HERG Rb efflux % Inhib 1.5 uG/mL; for inhibition at 30 min, 5 uG/mL: pH 7.4, 5 uG/mL, read-out: HERG Rb efflux % Inhib 5 uG/mL
T7 construct: expressed in transfected cells; host or cells: CHO cells (hERG-CHO)
T7 sequence (Q12809 whole entry): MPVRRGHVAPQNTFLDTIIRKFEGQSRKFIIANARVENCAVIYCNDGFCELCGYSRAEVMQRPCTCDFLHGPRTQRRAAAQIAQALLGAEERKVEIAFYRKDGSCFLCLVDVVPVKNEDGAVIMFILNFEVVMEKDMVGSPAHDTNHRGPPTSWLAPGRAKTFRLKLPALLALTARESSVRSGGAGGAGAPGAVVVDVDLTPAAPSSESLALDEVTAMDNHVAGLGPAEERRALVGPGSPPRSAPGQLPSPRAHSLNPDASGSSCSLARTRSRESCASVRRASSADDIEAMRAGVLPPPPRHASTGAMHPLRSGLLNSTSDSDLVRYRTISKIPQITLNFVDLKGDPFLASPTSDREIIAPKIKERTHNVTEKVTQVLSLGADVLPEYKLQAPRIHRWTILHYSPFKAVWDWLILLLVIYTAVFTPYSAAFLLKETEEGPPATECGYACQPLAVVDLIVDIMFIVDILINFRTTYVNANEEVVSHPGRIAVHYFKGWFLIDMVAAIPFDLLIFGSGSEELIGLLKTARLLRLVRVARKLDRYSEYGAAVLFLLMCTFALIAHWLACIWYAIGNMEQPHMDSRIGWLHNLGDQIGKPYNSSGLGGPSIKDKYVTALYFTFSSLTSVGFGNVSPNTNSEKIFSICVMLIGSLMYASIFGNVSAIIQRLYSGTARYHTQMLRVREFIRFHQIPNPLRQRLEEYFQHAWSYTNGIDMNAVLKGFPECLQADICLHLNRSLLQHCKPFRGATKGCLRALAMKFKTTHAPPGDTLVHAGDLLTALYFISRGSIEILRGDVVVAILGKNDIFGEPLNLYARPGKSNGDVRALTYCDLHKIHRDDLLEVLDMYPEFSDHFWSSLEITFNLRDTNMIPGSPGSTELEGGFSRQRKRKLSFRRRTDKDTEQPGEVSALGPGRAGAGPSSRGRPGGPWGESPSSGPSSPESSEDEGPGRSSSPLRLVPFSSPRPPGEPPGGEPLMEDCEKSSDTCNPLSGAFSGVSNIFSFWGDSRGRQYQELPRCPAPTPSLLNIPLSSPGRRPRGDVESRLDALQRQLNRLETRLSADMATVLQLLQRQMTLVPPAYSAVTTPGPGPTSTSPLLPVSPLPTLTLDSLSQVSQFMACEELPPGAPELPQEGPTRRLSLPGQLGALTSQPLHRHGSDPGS
Procedure: The base solution for the rubidium efflux studies was 144 mM NaCl, 20 mM HEPES-NaOH (pH 7.4), 2 mM CaCl2, 1 mM MgCl2, and 11 mM glucose. To prepare the rubidium loading buffer 5.4 mM RbCl was added. The wash buffer was supplemented with 5.4 mM KCl. The depolarization buffer was prepared by adding 40 mM KCl to the wash buffer. Drugs were added as 4× stocks containing 10% DMSO with a resulting final DMSO concentration of 2.5%.
hERG-CHO cells were plated into 96-well flat-bottom dishes and returned to the incubator for 24 hours. On the day of study, culture medium was removed and replaced by a HEPES-buffered saline solution containing 5.4 mM RbCl. Cells were returned to the tissue culture incubator for 3 hours to permit rubidium loading. […] Plates were then washed 3× with HEPES buffered saline containing 5.4 mM KCl and zero rubidium. After the 3rd wash cells were depolarized by the addition of 200 μl HEPES buffered saline containing 45.4 mM KCl. Cells were incubated in the depolarization solution for 5 minutes to permit efflux of rubidium. Supernatants were then collected and analyzed for rubidium content using automated flame atomic absorbance spectroscopy (ICR-8000, Aurora Biosciences). Percent inhibition was quantified based on a signal window defined by no block (vehicle) and full block with 10 μM dofetilide. All pipetting steps for the rubidium efflux screen were implemented using a pipetting robot capable of making simultaneous additions and removals from 96 wells (Quadra-96).

[2] = 30 min pre-incubation with NADPH, read-out: CYP 2D6 IC50 pre
[3] = co-incubation, dextromethorphan substrate, read-out: CYP 2D6 IC50 co
[4] = 30 min pre-incubation with NADPH, read-out: CYP 3A4 IC50 pre
[5] = co-incubation, read-out: CYP 3A4 IC50 co
[6] = 30 min pre-incubation with NADPH, read-out: CYP 2C9 IC50 pre
[7] = co-incubation, tolbutamide substrate, read-out: CYP 2C9 IC50 co

`Cc1nc(N2C[C@H]3C(=O)N(C)C(=N)N[C@@]3(c3ccc(Cl)s3)C2)nc(C2CC2)c1F` [Example 6] was tested. Which Ki [1] did it give?
Its Ki is 0.049 µM.

What about the IC50 (CYP2D6; [2]) of the same compound?
Its IC50 is 21 µM.

And the IC50 (CYP2D6; [3])?
The IC50 was over 30 µM.

And the IC50 (CYP3A4; [4])?
The IC50 was 12 µM.

What about the IC50 (CYP3A4; [5]) of the same compound?
The IC50 was 16 µM.

And the IC50 (CYP2C9; [6])?
The IC50 was 19 µM.

And the IC50 (CYP2C9; [7])?
The IC50 was 19 µM.

Which results are given for `CCCc1nc(N2C[C@H]3C(=O)N(C)C(=N)N[C@@]3(c3ccc(C#N)s3)C2)nc(C)c1F` [Example 16]?
Ki [1]: 0.019 µM; IC50 (BACE1): 0.135 µM; CathD Selectivity (human liver Cathepsin D): 16; inhibition at 30 min, 1.5 uG/mL (hERG): 44%; inhibition at 30 min, 5 uG/mL (hERG): 28%

Which results are given for `CCc1nc(N2C[C@H]3C(=O)N(C)C(=N)N[C@@]3(c3ccc(Cl)s3)C2)nc(C2CC2)c1Cl` [Example 13]?
Ki [1]: 0.157 µM; inhibition at 30 min, 1.5 uG/mL (hERG): 2%; inhibition at 30 min, 5 uG/mL (hERG): 46%

How did the Ki [1] turn out when `CCOc1nc(N2C[C@H]3C(=O)N(C)C(=N)N[C@@]3(c3ccc(Cl)s3)C2)nc(CC)c1F` [Example 5] was run?
Its Ki is 0.11 µM.

What about the IC50 (CYP2D6; [2]) of the same compound?
Its IC50 is 12.9 µM.

And the IC50 (CYP2D6; [3])?
The IC50 was 13.5 µM.

What about the IC50 (CYP3A4; [4]) of the same compound?
Its IC50 is 23 µM.

What about the IC50 (CYP3A4; [5]) of the same compound?
The IC50 was over 30 µM.

What about the IC50 (CYP2C9; [6]) of the same compound?
The IC50 was 4.2 µM.

What about the IC50 (CYP2C9; [7]) of the same compound?
The IC50 was 7.3 µM.

And the inhibition at 30 min, 1.5 uG/mL (hERG)?
Its inhibition at 30 min, 1.5 uG/mL is 10%.

And the inhibition at 30 min, 5 uG/mL (hERG)?
Its inhibition at 30 min, 5 uG/mL is 22%.

Which results are given for `COc1nc(N2C[C@H]3C(=O)N(C)C(=N)N[C@@]3(c3ccc(Cl)s3)C2)nc(C2CC2)c1Cl` [Example 12]?
Ki [1]: 0.03 µM; IC50 (BACE1): 0.561 µM; inhibition at 30 min, 1.5 uG/mL (hERG): -7%; inhibition at 30 min, 5 uG/mL (hERG): 34%

What does the source list for `COc1nc(N2C[C@H]3C(=O)N(C)C(=N)N[C@@]3(c3ccc(Cl)s3)C2)nc(C2CC2)c1F` [Example 11]?
Ki [1]: 0.151 µM; IC50 (BACE1): 1.32 µM; inhibition at 30 min, 1.5 uG/mL (hERG): 26%; inhibition at 30 min, 5 uG/mL (hERG): 72%

With `CCCc1nc(N2C[C@H]3C(=O)N(C)C(=N)N[C@@]3(c3ccc(Cl)s3)C2)nc(C)c1F` [Example 15] as the compound, how does the Ki [1] read?
Its Ki is 0.0088 µM.

And the IC50 (BACE1)?
The IC50 was 0.147 µM.

And the “CathD Selectivity” value (human liver Cathepsin D)?
Its value is 20.

And the inhibition at 30 min, 1.5 uG/mL (hERG)?
Its inhibition at 30 min, 1.5 uG/mL is 35%.

What about the inhibition at 30 min, 5 uG/mL (hERG) of the same compound?
Its inhibition at 30 min, 5 uG/mL is 40%.

What does the source list for `CCCc1nc(N2C[C@H]3C(=O)N(C)C(=N)N[C@@]3(c3ccc(Cl)s3)C2)nc(OC)c1F` [Example 10]?
IC50 (CYP2D6; [2]): 8.2 µM; IC50 (CYP2D6; [3]): 6.1 µM; IC50 (CYP3A4; [4]): 11.9 µM; IC50 (CYP3A4; [5]): > 30 µM; IC50 (CYP2C9; [6]): 11.3 µM; IC50 (CYP2C9; [7]): 7.9 µM; inhibition at 30 min, 1.5 uG/mL (hERG): 23%; inhibition at 30 min, 5 uG/mL (hERG): 65%

`CCc1nc(N2C[C@H]3C(=O)N(C)C(=N)N[C@@]3(c3ccc(Cl)s3)C2)nc(C)c1F` [Example 7] was tested. Which Ki [1] did it give?
The Ki was 0.024 µM.

And the IC50 (BACE1)?
The IC50 was 0.285 µM.

And the IC50 (CYP2D6; [2])?
Its IC50 is over 30 µM.

What about the IC50 (CYP2D6; [3]) of the same compound?
The IC50 was over 30 µM.

And the IC50 (CYP3A4; [4])?
The IC50 was over 30 µM.

What about the IC50 (CYP3A4; [5]) of the same compound?
The IC50 was over 30 µM.

And the IC50 (CYP2C9; [6])?
The IC50 was over 30 µM.

And the IC50 (CYP2C9; [7])?
Its IC50 is over 30 µM.
